US6030823A, “D-aminoacylase” (Daicel Chemical Industries, Ltd., priority 1998, dated 2000)

Test system: D-aminoacylase derived from Sebekia benihana IFO14309
Assay: Substrate specificity of the aminoacylase
Type: biochemical
Conditions: 20 mM substrate, 50 mM Tris-HCl pH 7.5, 30° C., 5 min
Experimental: The substrate specificity of the aminoacylase was examined using N-acetyl-D-methionine, N-acetyl-D-alanine, N-acetyl-D-aspartic acid, N-acetyl-D-leucine, N-acetyl-D-phenylalanine, N-acetyl-D-tryptophan, N-acetyl-D-valine, N-acetyl-L-leucine, N-acetyl-L-methionine, and N-acetyl-L-valine as substrates. The enzyme activity was assayed as follows. A 0.050-ml aliquot of an enzyme solution was added to 0.950 ml of 20 mM N-acetyl-D(or L)-amino acid in 50 mM Tris-HCl buffer (pH 7.5) and incubated at 30° C. for 5 min. The reaction was then stopped by adding 0.50 ml of a TCA solution to the reaction mixture. The relative activity is shown in Table 5, taking the activity for N-acetyl-L-methionine as 100%.

Relative activity [%]	SMILES
1.4	CC(=O)N[C@H](CC(N)=O)C(=O)O [N-Ac-D-Asn, N-acetyl-D-asparagine]
1.1	CC(=O)N[C@H](C)C(=O)O [N-Ac-D-Ala, N-acetyl-D-alanine]
33	CC(=O)N[C@@H](C(=O)O)C(C)C [N-Ac-D-Val, N-acetyl-D-valine]
0	CSCC[C@H](NC(C)=O)C(=O)O [N-Ac-L-Met, N-acetyl-L-methionine]
255	CC(=O)N[C@H](CC(C)C)C(=O)O [N-Ac-D-Leu, N-acetyl-D-leucine]
100	CSCC[C@@H](NC(C)=O)C(=O)O [N-Ac-D-Met, N-acetyl-D-methionine]
